Data published in ChEMBL document CHEMBL1155684, “Preparation, stereochemistry, and cytotoxic activity of the melampolides from Mikania minima” (J Nat Prod, 2000).

What was measured:
Assay type in all cases: functional, cell-based
P388 = assay: Cytotoxicity against mouse P388 cells
A549 = assay: Cytotoxicity against human A549 cells
HT-29 = assay: Cytotoxicity against human HT29 cells

SMILES | IC50 (P388) | IC50 (A549) | IC50 (HT-29)
C=C1C(=O)O[C@@H]2/C=C(\COC(C)=O)CC/C=C(/CO)C[C@H](OC(C)=O)[C@@H]12 | 2700 nM | 5500 nM | –
C=C1C(=O)O[C@@H]2/C=C(\COC(C)=O)CC/C=C(/C=O)C[C@H](OC(C)=O)[C@@H]12 | 1400 nM | 2800 nM | 2800 nM
